Reference: US10712349B2, “Circulating KIM-1 levels for detection of pathologies associated with injury to, or cancer of, the kidney” (THE BRIGHAM AND WOMEN'S HOSPITAL, INC., priority 2014, dated 2020)
Entries after “also recorded” stand apart in the source; their conditions may differ.

Legend:
Male Sprague-Dawley rats = test: Gentamicin-induced nephrotoxicity in rats; assay type: in vivo, rat; details: for kidney histopathologic analysis: kidney tissue collected day 11
Experimental: Rats were provided with free access to food and water and subjected to a 12-hour light and dark cycle. Rats were euthanized on day 11, and urine, plasma, and tissue samples were collected and analyzed. Tissue samples were fixed in 10% neutral buffered formalin or snap frozen. For histologic assessment, […] paraffin sections were prepared and stained with hematoxylin and eosin. The rat studies were undertaken in accordance with criteria outlined in a license granted under the Animals (Scientific Procedures) Act 1986 and approved by the University of Liverpool Animal Ethics Committee.
(§1) Microbead-based assays for rodent and human plasma and serum KIM-1 were developed, and extensive validation of the assays were performed using previously described approaches.^24 Urinary KIM-1 in rodents and humans was measured using microbead based assays as described previously.5,7,25,26 Capture antibodies (MAB 1817 for mouse, AF1750 for human [R&D Systems]), MARKE^25 antibody for rat (developed at Brigham and Women's Hospital) were conjugated with COOH polystyrene beads (Bio-Rad) with an amine coupling kit (Bio-Rad) using N-hydroxysuccinamide-1-ethyl-3-(3-dimethylaminopropyl) carbodiimide chemistry according to the manufacturer's protocol. Approximately 6000 beads in […] of sample diluent buffer (0.1M HEPES, 0.1M NaCl, 0.1% Tween-20, and 1% BSA; pH, 7.4; filter sterilized) were incubated with […] of sample or recombinant KIM-1 protein (1817-TM-050-CF for mice, 1750-TM for humans [R&D systems]), and KIM-FC for rats [developed at Brigham and Women's Hospital]) for 45 minutes. After incubation, beads were washed three times with PBS with Tween and incubated with biotinylated anti-KIM-1 detection antibody (BAF 1817 for mice, BAF 1750 for humans [R&D Systems]) and MARKE-2 for rats [developed at Brigham and Women's Hospital]) for 30 minutes. Beads were washed again with PBS with Tween and incubated for 15 minutes with the streptavidin-phycoerythrin solution (Invitrogen). The signal from the fluorochrome, which is directly proportional to the amount of antigen bound at the microbead surface, is captured using the Bio-Plex system (Bio-Rad). Data were interpreted using a five parametric logistic regression analysis.
The inventors also investigated whether plasma KIM-1 levels can serve as a biomarker in gentamicin-induced kidney injury in a different rodent species, rats. […] Plasma, urine, and kidney tissue were collected on day 11. The extent of kidney damage was assessed by histo-pathologic analysis and changes in plasma creatinine. […] The lumens of the tubules were filled with casts and dead cells. […] Thus, plasma KIM-1 is a sensitive marker of ischemia and toxin-induced injury to the proximal tubule in mice and rats.

male BALB/c mice = test: Liver injury in mice (CCl4), specificity of plasma KIM-1 to renal injury; assay type: in vivo, mouse; details: 48 hours
Experimental: As controls, male BALB/c mice were injected intraperitoneally once with 0.5 ml/kg of 10% CC14 in vegetable oil (n=5) or vegetable oil alone (vehicle, n=5), as previously de-scribed.^21 Forty-eight hours after CCl4 administration, mice were euthanized and urine, plasma, and tissue samples were collected and analyzed.
as §1
To evaluate the specificity of plasma KIM-1 to renal injury, mice were treated with carbon tetrachloride (CCl4), a known hepatotoxicant. […] Thus, plasma KIM-1 was not affected by liver injury.

[1] = single dose of 10% CCl4, 0.5 ml/kg

Compound | kidney histopathologic analysis (Male Sprague-Dawley rats; 50 mg/kg gentamicin per day intraperitoneally for 10 days) | urinary KIM-1 levels (normalized to urine creatinine) (Male Sprague-Dawley rats; 10 daily doses of 50 or 200 mg/kg, day 11) | kidney sections, hematoxylin and eosin staining (Male Sprague-Dawley rats; 50 or 200 mg/kg daily for 10 days, euthanized day 11 (FIG. 1H)) | kidney histopathologic analysis (Male Sprague-Dawley rats; daily doses of 200 mg/kg gentamicin for 10 days) | liver histopathology (male BALB/c mice; single dose of 10% CCl4, 0.5 ml/kg intraperitoneally) | kidney morphology (histopathology) (male BALB/c mice; [1]) | plasma KIM-1 (male BALB/c mice; [1]) | plasma creatinine (male BALB/c mice; [1]) | urinary KIM-1 (male BALB/c mice; [1])
gentamicin | brush border loss, focal tubular necrosis, and interstitial inflammation | significantly increased | loss of brush border, necrosis, and sloughing of cells into the tubular lumen | extensive diffuse cell necrosis | – | – | – | – | –
ClC(Cl)(Cl)Cl [CCl4, carbon tetrachloride] | – | – | – | – | liver necrosis | No histopathologic changes | no significant alterations; also recorded: not changed | no significant alterations | no significant alterations
